“Also recorded” adds a separate entry of the source. Read-outs that look alike come from different tables or passages of the source.
Tests used:
[1] = Toxicokinetics in acute oral toxicity study in rats; assay type: in vivo
Source text: Compound 1 was also well absorbed in rats with time to reach maximum plasma concentrations(tmax) ranging from 4.0 to 24.0 hr.

[2] = Toxicokinetics in 7-day dose range finding study in dogs; assay type: in vivo; conditions: 100 mg/kg/day; for Cmax: dog, plasma, oral
Procedure: One dog per gender was dosed orally with the vehicle (0.5% methylcellulose+0.5% Tween80 in water), or 25, 50, or 100 mg/kg/day Compound 1 for 7 consecutive days. The dose volume was 5 mL/kg/day for all dose groups. Plasma samples were collected on Days 1 and 7 for TK analysis and viability, clinical observations, body weights, feed consumption, clinical pathology (termination), organ weights, macroscopic observations, and microscopic pathology were evaluated.
The plasma AUC0-24 data on Day 1 was consistent with previously conducted single dose studies of Compound 1 in the dog.

hERG = hERG (Homo sapiens, UniProt Q12809); assay: hERG channel competitive binding (3H-astemizole); conditions: probe 3H-astemizole
Sequence of hERG (Q12809 whole entry): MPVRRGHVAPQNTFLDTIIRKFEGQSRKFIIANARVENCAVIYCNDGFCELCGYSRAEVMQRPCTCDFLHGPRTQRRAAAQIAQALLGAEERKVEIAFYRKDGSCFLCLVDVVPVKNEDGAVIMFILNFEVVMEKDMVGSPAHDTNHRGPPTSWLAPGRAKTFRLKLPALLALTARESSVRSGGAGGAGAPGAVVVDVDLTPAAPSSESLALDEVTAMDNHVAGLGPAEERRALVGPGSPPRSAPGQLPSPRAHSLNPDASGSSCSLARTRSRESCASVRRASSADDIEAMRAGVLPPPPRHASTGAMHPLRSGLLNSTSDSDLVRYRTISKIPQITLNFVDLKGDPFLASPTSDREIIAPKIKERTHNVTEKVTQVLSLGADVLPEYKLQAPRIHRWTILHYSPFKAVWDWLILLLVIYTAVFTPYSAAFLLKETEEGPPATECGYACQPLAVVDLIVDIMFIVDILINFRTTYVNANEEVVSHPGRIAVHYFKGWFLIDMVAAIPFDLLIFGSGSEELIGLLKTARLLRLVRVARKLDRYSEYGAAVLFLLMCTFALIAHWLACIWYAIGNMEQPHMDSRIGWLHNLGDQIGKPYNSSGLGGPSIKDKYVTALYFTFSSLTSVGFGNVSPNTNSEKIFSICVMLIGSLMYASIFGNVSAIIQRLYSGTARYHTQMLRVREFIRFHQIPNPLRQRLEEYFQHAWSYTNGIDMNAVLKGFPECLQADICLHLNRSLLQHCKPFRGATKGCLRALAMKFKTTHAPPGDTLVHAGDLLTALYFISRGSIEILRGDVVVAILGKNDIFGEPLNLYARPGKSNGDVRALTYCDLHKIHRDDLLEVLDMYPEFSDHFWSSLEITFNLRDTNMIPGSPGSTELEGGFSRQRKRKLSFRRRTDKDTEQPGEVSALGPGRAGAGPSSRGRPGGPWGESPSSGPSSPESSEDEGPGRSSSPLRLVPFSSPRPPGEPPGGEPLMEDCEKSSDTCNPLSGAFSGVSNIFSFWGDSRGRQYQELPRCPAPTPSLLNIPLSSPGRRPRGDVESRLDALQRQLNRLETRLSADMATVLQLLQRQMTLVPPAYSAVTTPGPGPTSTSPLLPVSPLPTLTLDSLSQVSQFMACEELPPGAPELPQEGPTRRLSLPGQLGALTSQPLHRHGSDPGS

[3] = system: Chinese hamster ovary (CHO) cell; assay: Chinese hamster ovary (CHO) chromosome aberration assay; assay type: cell-based; conditions: GLP
Procedure: (§1) The potential for genetic toxicology was tested using standard GLP bacterial mutation (Ames), Chinese hamster ovary (CHO) chromosome aberration, and in vivo mouse micronucleus assays: Compound 1 was negative in all tests. […] With the exception of the preliminary 7-day toxicity studies, all studies were performed according to GLP regulations.

male mice = assay: In vivo mouse micronucleus assay; conditions: oral gavage at doses up to 2000 mg/kg
Procedure: as §1

[4] = Tissue distribution in male rats after single oral dose of 75 mg/kg; assay type: in vivo, male Sprague Dawley rats; conditions: 75 mg/kg oral; for Kp at 1 h / Kp at 4 hr / Kp at 12 hr / Kp / Kp at 48 hr: po, 75 mg/kg
Procedure: Following a single oral administration of unlabelled Compound 1 to rats, the highest distribution was to the liver followed by lung, pancreas and brain with tissue-to-plasma ratios of 0.73, 0.19, 0.13 and 0.02, respectively, at one hour following oral administration of 75 mg/kg. Elimination of Compound 1 was nearly complete from all tissues 48 hours after administration (concentrations less than 1 μg/mL). Although the distribution to the lung is low relative to plasma, the concentrations measured in lung at low and moderate doses are predicted to be efficacious.

[5] = Stability of 6 mg/mL aqueous methylcellulose-polysorbate 80 suspension (HPLC, XRPD, NMR); assay type: physicochemical; conditions: for Peak purity %: 6 mg/mL aqueous methylcellulose-polysorbate 80 suspension, room temperature
Procedure: Methylcellulose (0.5 g) was combined with 99.0 g of purified water in a beaker and stirred in a 60-70° C. water bath for 30′-1 hr. The solution was stirred in a 0° C. ice/water bath for another 30′ or until clear. Polysorbate 80 (0.5 g) was added and stirring at room temperature followed for 30′-1 hr or until a clear solution was obtained.
The desired amount of 0.5% methylcellulose and 0.5% polysorbate 80 stock solution for making a 6 mg/mL based on free base (6.48 mg/mL based on HCl salt) was transferred into the vial and sonicated for 20 minutes with alternate stirring for 1-2 minutes. The solution was homogenized for approximately 1-2 minutes.
As with 0.5% methylcellulose formulation prepared previously, the HCl salt was quickly converted to Compound 1 in Form I at T(0) resulting in a crystalline free form suspension as shown by XRPD (FIG. 10) and confirmed by ^1H NMR analysis (FIGS. 11-13). Additionally, the solid form in suspension at T(0) was recovered an subjected to HPLC analysis: […]

in vivo = conditions: dog, po
Procedure: Repeat-dose oral toxicity studies of 7- and 14-days duration have been conducted in rats (up to 600 mg/kg/day) and dogs (up to 200 mg/kg/day).

[6] = Sprague Dawley, rat, male rats, Brain
[7] = Sprague Dawley, rat, male rats, Liver
[8] = Sprague Dawley, rat, male rats, Lung
[9] = Sprague Dawley, rat, male rats, Pancreas
[10] = Sprague Dawley, rat, male rats, Plasma

Structure (SMILES): Cc1ccc(NC(=O)C2(c3ccc4c(c3)OC(F)(F)O4)CC2)nc1-c1cccc(C(=O)O)c1 [Compound 1, 3-(6-(1-(2,2-difluorobenzo[d][1,3]dioxol-5-yl)cyclopropanecarboxamido)-3-methylpyridin-2-yl)benzoic acid]
- AUC0-24hr values, females vs. males ([1]; 500 mg/kg dose group): more than 2 fold
- Cmax ([1]; Sprague Dawley, rat, plasma, po, 2000 mg/kg, Male): 306000 ng/mL
- AUC(0-t) ([1]; Sprague Dawley, rat, plasma, po, 2000 mg/kg, Male, read-out: AUC0-24 h): 6110 µg·h/mL
- Tmax ([1]; Sprague Dawley, rat, plasma, po, 2000 mg/kg, Male, read-out: tmax): 24 h
- Tmax ([1]; both sexes, rat, plasma, po, 500 to 2000 mg/kg, read-out: time to reach maximum plasma concentrations (tmax)): 4 to 24 h
- half-life ([1]; both sexes, rat, plasma, po, could not be calculated at 1000 and 2000 mg/kg, read-out: elimination half-life (t1/2)): 9.4 to 10.8 h
- Cmax ([1]; male, rat, plasma, po, males at 500 mg/kg): 135000 ng/mL
- AUC(0-t) ([1]; male, rat, plasma, po, males at 500 mg/kg, read-out: AUC0-24hr): 1390 µg·h/mL
- Cmax ([1]; male, rat, plasma, po, males at 2000 mg/kg): 306000 ng/mL
- Cmax ([1]; rat, plasma, po, 2000 mg/kg, Female): 305000 ng/mL
- AUC(0-t) ([1]; rat, plasma, po, 2000 mg/kg, Female, read-out: AUC0-24 h): 6750 µg·h/mL
- Tmax ([1]; rat, plasma, po, 2000 mg/kg, Female, read-out: tmax): 10 h
- average plasma concentrations ([2]; female): 38 µM
- average plasma concentrations ([2]; male): 16 µM
- Cmax ([2]; female): ~130 µM
- Cmax ([2]; male): ~110 µM
- inhibition at 10 µM (hERG): 4%
- clastogenicity (chromosome aberrations) [3]: negative
- number of micronucleated polychromatic erythrocytes (male mice): negative; also recorded: did not induce a significant increase
- Cmax [4, 6]: 957 ng/mL
- Tmax [4, 6]: 4 h
- AUC ([4]; Sprague Dawley, rat, male rats, Brain, footnote a: AUCall): 9.3 µg·h/mL
- concentration at 12 hr ([4]; Sprague Dawley, rat, male rats, Brain, read-out: Clast): 546 ng/mL
- AUC(0-inf) [4, 7]: 885 µg·h/mL
- Cmax [4, 7]: 38100 ng/mL
- Tmax [4, 7]: 4 h
- half-life [4, 7]: 8.06 h
- concentration at 48 hr ([4]; Sprague Dawley, rat, male rats, Liver, read-out: Clast): 965 ng/mL
- AUC(0-inf) [4, 8]: 187 µg·h/mL
- Cmax [4, 8]: 9140 ng/mL
- Tmax [4, 8]: 1 h
- half-life [4, 8]: 7.79 h
- concentration at 48 hr ([4]; Sprague Dawley, rat, male rats, Lung, read-out: Clast): 189 ng/mL
- AUC(0-inf) [4, 9]: 132 µg·h/mL
- Cmax [4, 9]: 6830 ng/mL
- Tmax [4, 9]: 4 h
- half-life [4, 9]: 6.87 h
- concentration at 48 hr ([4]; Sprague Dawley, rat, male rats, Pancreas, read-out: Clast): 86 ng/mL
- AUC(0-inf) [4, 10]: 980 µg·h/mL
- Cmax [4, 10]: 59100 ng/mL
- Tmax [4, 10]: 4 h
- half-life [4, 10]: 6.15 h
- concentration at 48 hr ([4]; Sprague Dawley, rat, male rats, Plasma, read-out: Clast): 542 ng/mL
- Tissue Concentrations, Brain ([4]; male rats, 1 hr): 0.93 μg/mL or μg/g
- Tissue Concentrations, Liver ([4]; male rats, 1 hr): 34.7 μg/mL or μg/g
- Tissue Concentrations, Lung ([4]; male rats, 1 hr): 9.14 μg/mL or μg/g
- Tissue Concentrations, Pancreas ([4]; male rats, 1 hr): 6.03 μg/mL or μg/g
- Tissue Concentrations, Plasma ([4]; male rats, 1 hr): 47.3 μg/mL or μg/g
- Tissue Concentrations, Brain ([4]; male rats, 4 hr): 0.96 μg/mL or μg/g
- Tissue Concentrations, Liver ([4]; male rats, 4 hr): 38.1 μg/mL or μg/g
- Tissue Concentrations, Lung ([4]; male rats, 4 hr): 8.99 μg/mL or μg/g
- Tissue Concentrations, Pancreas ([4]; male rats, 4 hr): 6.83 μg/mL or μg/g
- Tissue Concentrations, Plasma ([4]; male rats, 4 hr): 59.1 μg/mL or μg/g
- Tissue Concentrations, Brain ([4]; male rats, 12 hr): 0.55 μg/mL or μg/g
- Tissue Concentrations, Liver ([4]; male rats, 12 hr): 26.3 μg/mL or μg/g
- Tissue Concentrations, Lung ([4]; male rats, 12 hr): 5.17 μg/mL or μg/g
- Tissue Concentrations, Pancreas ([4]; male rats, 12 hr): 3.65 μg/mL or μg/g
- Tissue Concentrations, Plasma ([4]; male rats, 12 hr): 24.8 μg/mL or μg/g
- Tissue Concentrations, Brain ([4]; male rats, 48 hr): BLQ
- Tissue Concentrations, Liver ([4]; male rats, 48 hr): 0.97 μg/mL or μg/g
- Tissue Concentrations, Lung ([4]; male rats, 48 hr): 0.19 μg/mL or μg/g
- Tissue Concentrations, Pancreas ([4]; male rats, 48 hr): 0.09 μg/mL or μg/g
- Tissue Concentrations, Plasma ([4]; male rats, 48 hr): 0.54 μg/mL or μg/g
- tlast ([4]; male rats, Brain): 12 h
- tlast ([4]; male rats, Liver): 48 h
- tlast ([4]; male rats, Lung): 48 h
- tlast ([4]; male rats, Pancreas): 48 h
- tlast ([4]; male rats, Plasma): 48 h
- concentration at 48 h ([4]; male, Sprague Dawley, rat, all tissues (liver, lung, pancreas, brain), rats, 48 hours after administration, read-out: concentrations in all tissues): < 1000 ng/mL
- Kp at 1 h ([4]; male, Sprague Dawley, rat, brain, male rats, 1 hr, read-out: Tissue/Plasma Ratio, Brain): 0.02
- Kp at 4 hr ([4]; male, Sprague Dawley, rat, brain, male rats, 4 hr, read-out: Tissue/Plasma Ratio, Brain): 0.02
- Kp at 12 hr ([4]; male, Sprague Dawley, rat, brain, male rats, 12 hr, read-out: Tissue/Plasma Ratio, Brain): 0.02
- Kp ([4]; male, Sprague Dawley, rat, brain, male rats, Brain, read-out: Cmax Ratio (Tissue/Plasma)): 0.02
- Kp ([4]; male, Sprague Dawley, rat, brain, rats, 1 to 48 hours after administration, read-out: tissue-to-plasma concentration ratios, brain): 0.02
- Kp at 1 h ([4]; male, Sprague Dawley, rat, liver, male rats, 1 hr, read-out: Tissue/Plasma Ratio, Liver): 0.73
- Kp at 4 hr ([4]; male, Sprague Dawley, rat, liver, male rats, 4 hr, read-out: Tissue/Plasma Ratio, Liver): 0.64
- Kp at 12 hr ([4]; male, Sprague Dawley, rat, liver, male rats, 12 hr, read-out: Tissue/Plasma Ratio, Liver): 1.06
- Kp at 48 hr ([4]; male, Sprague Dawley, rat, liver, male rats, 48 hr, read-out: Tissue/Plasma Ratio, Liver): 1.78
- Kp ([4]; male, Sprague Dawley, rat, liver, male rats, Liver, read-out: Cmax Ratio (Tissue/Plasma)): 0.64
- Kp ([4]; male, Sprague Dawley, rat, liver, rats, 1 to 48 hours after administration, read-out: tissue-to-plasma concentration ratios, liver): 0.7 to 1.8
- Kp at 1 h ([4]; male, Sprague Dawley, rat, lung, male rats, 1 hr, read-out: Tissue/Plasma Ratio, Lung): 0.19
- Kp at 4 hr ([4]; male, Sprague Dawley, rat, lung, male rats, 4 hr, read-out: Tissue/Plasma Ratio, Lung): 0.15
- Kp at 12 hr ([4]; male, Sprague Dawley, rat, lung, male rats, 12 hr, read-out: Tissue/Plasma Ratio, Lung): 0.21
- Kp at 48 hr ([4]; male, Sprague Dawley, rat, lung, male rats, 48 hr, read-out: Tissue/Plasma Ratio, Lung): 0.35
- Kp ([4]; male, Sprague Dawley, rat, lung, male rats, Lung, read-out: Cmax Ratio (Tissue/Plasma)): 0.15
- Kp ([4]; male, Sprague Dawley, rat, lung, rats, 1 to 48 hours after administration, read-out: tissue-to-plasma concentration ratios, lung): 0.15 to 0.35
- Kp at 1 h ([4]; male, Sprague Dawley, rat, pancreas, male rats, 1 hr, read-out: Tissue/Plasma Ratio, Pancreas): 0.13
- Kp at 4 hr ([4]; male, Sprague Dawley, rat, pancreas, male rats, 4 hr, read-out: Tissue/Plasma Ratio, Pancreas): 0.12
- Kp at 12 hr ([4]; male, Sprague Dawley, rat, pancreas, male rats, 12 hr, read-out: Tissue/Plasma Ratio, Pancreas): 0.15
- Kp at 48 hr ([4]; male, Sprague Dawley, rat, pancreas, male rats, 48 hr, read-out: Tissue/Plasma Ratio, Pancreas): 0.15
- Kp ([4]; male, Sprague Dawley, rat, pancreas, male rats, Pancreas, read-out: Cmax Ratio (Tissue/Plasma)): 0.12
- Kp ([4]; male, Sprague Dawley, rat, pancreas, rats, 1 to 48 hours after administration, read-out: tissue-to-plasma concentration ratios, pancreas): 0.12 to 0.15
- degradation peaks by HPLC [5]: No major degradation peaks were detected
- Peak purity % ([5]; T(0)): 98.81%
- Peak purity % ([5]; T(24 h)): 98.24%
- chemically stable, time ([5]; 24 h, 6 mg/mL): at least 24 hrs
- NOAEL at 14 days (in vivo): 200 mg/kg/day

From patent US20090176839A1, “FORMULATIONS OF 3-(6-(1-(2,2-DIFLUOROBENZO[D][1,3]DIOXOL-5-YL) CYCLOPROPANECARBOXAMIDO)-3-METHYLPYRIDIN-2-YL)BENZOIC ACID” (priority 2007, published 2009)
